# Assay results taken from patent US20020114868A1, “Highly soluble and stable nutritional compositions containing calcium and magnesium” (priority 1999, published 2002).
# Like-named read-outs stand apart in the source and are kept apart here. Marks after values point to notes of the source that are not given here.
# Settings: 3.4 g calcium equivalent in 8 ounces deionized water at 68° F
smiles,measurement,setting,value
"CC(O)C(=O)[O-].O=C([O-])[C@H](O)[C@@H](O)[C@H](O)[C@H](O)CO.[Ca+2] [Gluconal ®, Calcium Gluconate Lactate]",Dissolution Rates as % of Maximum Solubility,elapsed time 00:00.0 mm:ss.s,0%
same,Dissolution Rates as % of Maximum Solubility,elapsed time 00:05.4 mm:ss.s,10%
same,Dissolution Rates as % of Maximum Solubility,elapsed time 00:10.7 mm:ss.s,20%
same,Dissolution Rates as % of Maximum Solubility,elapsed time 00:16.1 mm:ss.s,30%
same,Dissolution Rates as % of Maximum Solubility,elapsed time 00:21.5 mm:ss.s,50%
same,Dissolution Rates as % of Maximum Solubility,elapsed time 00:26.9 mm:ss.s,55%
same,Dissolution Rates as % of Maximum Solubility,elapsed time 00:32.2 mm:ss.s,45%
same,Dissolution Rates as % of Maximum Solubility,elapsed time 00:37.6 mm:ss.s,58%
same,Dissolution Rates as % of Maximum Solubility,elapsed time 00:43.0 mm:ss.s,63%
same,Dissolution Rates as % of Maximum Solubility,elapsed time 00:48.4 mm:ss.s,66%
same,Dissolution Rates as % of Maximum Solubility,elapsed time 00:53.7 mm:ss.s,71%
same,Dissolution Rates as % of Maximum Solubility,elapsed time 00:59.1 mm:ss.s,71%
same,Dissolution Rates as % of Maximum Solubility,elapsed time 01:04.5 mm:ss.s,77%
same,Dissolution Rates as % of Maximum Solubility,elapsed time 01:09.9 mm:ss.s,77%
same,Dissolution Rates as % of Maximum Solubility,elapsed time 01:15.3 mm:ss.s,80%
same,Dissolution Rates as % of Maximum Solubility,elapsed time 01:20.6 mm:ss.s,83%
same,Dissolution Rates as % of Maximum Solubility,elapsed time 01:36.7 mm:ss.s,85%
same,Dissolution Rates as % of Maximum Solubility,elapsed time 01:47.5 mm:ss.s,85%
same,Dissolution Rates as % of Maximum Solubility,elapsed time 01:58.2 mm:ss.s,86%
same,Dissolution Rates as % of Maximum Solubility,elapsed time 02:09.0 mm:ss.s,88%
same,Dissolution Rates as % of Maximum Solubility,elapsed time 03:00.0 mm:ss.s,98%
same,Dissolution Rates as % of Maximum Solubility,elapsed time 03:30.5 mm:ss.s,94%
same,Dissolution Rates as % of Maximum Solubility,elapsed time 04:00.0 mm:ss.s,99%
same,Dissolution Rates as % of Maximum Solubility,elapsed time 05:00.0 mm:ss.s,99%
same,Dissolution Rates as % of Maximum Solubility,elapsed time 06:00.0 mm:ss.s,99%
same,Dissolution Rates as % of Maximum Solubility,elapsed time 07:00.0 mm:ss.s,99%***
same,Dissolution Rates as % of Maximum Solubility,elapsed time 101:26.0 mm:ss.s,86%
